Read-outs that look alike come from different tables or passages of the source.
Columns and labels:
[1] = tested on: A549 (lung adenocarcinoma); experiment: Cytotoxic MTS assay, A549; format: cell-based, human
Procedure: (§1) In vitro cytotoxic activity of final compounds 5–82 was evaluated after 3 days of incubation against eight cell lines derived from human solid tumors including lung (A549 cells) and colon (HCT116 and HCT116p53−/−) carcinomas, as well as leukemia cell lines (CCRF-CEM, CEM-DNR, K562, and K562-TAX) and osteosarcoma (U2OS cells). For comparison, non-malignant BJ and MRC-5 fibroblasts, and BJLD and MCR-5LD fibroblasts doxorubicin-resistant cell lines were used. Concentrations inhibiting the cell growth by 50% (IC50) were determined using a quantitative metabolic staining with 3-(4,5-dimethylthiazol-2yl)-5-(3-carboxymethoxyphenyl)-2-(4-sulfophenyl)-2H-tetrazolium (MTS) and are summarized in (Table 3).
(§2) Cytotoxic activity was determined by MTS assay following 72 h of incubation. IC50 is the lowest concentration that kills 50% of cells. The standard deviation in cytotoxicity assays is typically up to 20% of the average value. […] The tested cell lines: A549 (lung adenocarcinoma), BJ (noncancerous human fibroblasts from foreskin), BJLD (human lung fibroblast doxorubicin-resistant), CCRF-CEM (childhood T cell acute lymphoblastic leukemia), a daunorubicin-resistant subline of CCRF-CEM cells (CEM-DNR bulk), HCT116 (colorectal carcinoma), HCT116p53−/− (HCT116 with deleted p53 gene), K562 (chronic myeloid leukemia), K562-TAX (chronic myeloid leukemia paclitaxel-resistant subline), MRC-5 (noncancerous human lung fibroblasts), MRC-5LD (noncancerous human lung fibroblasts doxorubicin-resistant), and U2OS (osteosarcoma).
(§3) All cell lines were purchased from the American Tissue Culture Collection (ATCC). The A549 cell line is lung adenocarcinoma. MRC-5 and BJ cell lines were used as a non-tumor control and represent human fibroblasts. (MRC-5 LD and BJLD) are doxorubicin-resistant human lung fibroblast cell lines. The CCRF-CEM line is derived from T lymphoblastic leukemia, evincing high chemosensitivity, whereas K562 represent cells from an […] patient sample with bcr-abl translocation. The daunorubicin-resistant subline of CCRF-CEM cells (CEM-DNR bulk) and paclitaxel-resistant subline K562-TAX were selected in our laboratory by the cultivation of maternal cell lines in increasing concentrations of daunorubicin or paclitaxel, respectively. The CEM-DNR bulk cells overexpress MRP-1 and P-glycoprotein protein, whereas K562-TAX cells overexpress P-glycoprotein only. Both proteins belong to the family of ABC transporters and are involved in the primary and/or acquired multidrug-resistance phenomenon. The U2OS cell line is derived from osteosarcoma, HCT116 is a colorectal tumor cell line and its p53 gene knock-down counterpart (HCT116p53−/−, Horizon Discovery Ltd., Cambridge, UK) is a model of human cancers with p53 mutation frequently associated with poor prognosis. The cells were maintained in nunc/corning 80 cm^2 plastic tissue culture flasks and cultured in a cell culture medium according to ATCC or Horizon recommendations (DMEM/RPMI 1640 with 5 g/L glucose, 2 mM glutamine, 100 U/mL penicillin, […], 10% fetal calf serum, and NaHCO3).
(§4) The activity of compounds was determined using a standard 3-(4,5-dimethylthiazol-2-yl)-5-(3-carboxymethoxyphenyl)-2-(4-sulfophenyl)-2H-tetrazolium (MTS) and it was performed at the Institute of Molecular and Translational Medicine by a robotic platform (High-ResBiosolutions). Cell suspensions were prepared and diluted according to the particular cell type and the expected target cell density (25,000–35,000 cells/mL based on cell growth characteristics). Cells were added by automatic pipettor (30 µL) into 384-well microtiter plates. All tested compounds were dissolved in 100% DMSO and four-fold dilutions of the intended test concentration were added in 0.15 µL aliquots at time zero to the microtiter plate wells by the echo acoustic non-contact liquid handler Echo550 (Labcyte). […]

[2] = tested on: BJ (noncancerous human fibroblasts from foreskin); experiment: Cytotoxic MTS assay, BJ; format: cell-based
Procedure: as §1, §2, §3, §4

[3] = tested on: BJLD (human lung fibroblast doxorubicin-resistant); experiment: Cytotoxic MTS assay, BJLD; format: cell-based
Procedure: as §1, §2, §3, §4

[4] = tested on: CCRF-CEM (childhood T cell acute lymphoblastic leukemia); experiment: Cytotoxic MTS assay, CCRF-CEM; format: cell-based, human
Procedure: as §1, §2, §3, §4

[5] = tested on: CEM-DNR bulk (daunorubicin-resistant subline of CCRF-CEM cells); experiment: Cytotoxic MTS assay, CEM-DNR; format: cell-based, human
Procedure: as §1, §2, §3, §4

[6] = tested on: HCT116 (colorectal carcinoma); experiment: Cytotoxic MTS assay, HCT116; format: cell-based, human
Procedure: as §1, §2, §3, §4

[7] = tested on: HCT116p53−/− (HCT116 with deleted p53 gene); experiment: Cytotoxic MTS assay, HCT116p53−/−; format: cell-based, human
Procedure: as §1, §2, §3, §4

[8] = tested on: K562 (chronic myeloid leukemia); experiment: Cytotoxic MTS assay, K562; format: cell-based, human
Procedure: as §1, §2, §3, §4

[9] = tested on: K562-TAX (chronic myeloid leukemia paclitaxel-resistant subline); experiment: Cytotoxic MTS assay, K562-TAX; format: cell-based, human
Procedure: as §1, §2, §3, §4

[10] = tested on: MRC-5 (noncancerous human lung fibroblasts); experiment: Cytotoxic MTS assay, MRC-5; format: cell-based
Procedure: as §1, §2, §3, §4

[11] = tested on: MRC-5LD (noncancerous human lung fibroblasts doxorubicin-resistant); experiment: Cytotoxic MTS assay, MRC-5LD; format: cell-based
Procedure: as §1, §2, §3, §4

U2OS (osteosarcoma) = experiment: Cytotoxic MTS assay, U2OS; format: cell-based, human
Procedure: as §1, §2, §3, §4

Cytotoxic MTS assay, BJ = format: cell-based, human; conditions: human, BJ cells (noncancerous foreskin fibroblasts); MTS, 72 h of incubation
Procedure: as §1, §2, §3, §4

[12] = Cytotoxic MTS assay, BJLD; format: cell-based, human; conditions: human, BJLD cells (fibroblasts, doxorubicin-resistant); MTS, 72 h of incubation
Procedure: as §1, §2, §3, §4

[13] = Cytotoxic MTS assay, MRC-5; format: cell-based, human; conditions: human, MRC-5 cells (noncancerous lung fibroblasts); MTS, 72 h of incubation
Procedure: as §1, §2, §3, §4

[14] = Cytotoxic MTS assay, MRC-5LD; format: cell-based, human; conditions: human; MTS, 72 h of incubation; read-out: Cytotoxic activity IC50, MRC5-LD
Procedure: as §1, §2, §3, §4

COc1cccc(C(=O)OCCS(=O)(=O)c2cc[n+]([O-])c3cc(Cl)ccc23)c1OC [Compound 64, 2-[(N-Oxide 7-chloroquinolin-4-yl)sulfonyl]ethyl-2,3-dimethoxybenzoate]
IC50 [1]: 28.4 µM
IC50 [2]: 9.19 µM
IC50 [3]: 8.95 µM
IC50 [4]: 0.71 µM
IC50 [5]: 8.99 µM
IC50 [6]: 8.18 µM
IC50 [7]: 7.68 µM
IC50 [8]: 5.51 µM
IC50 [9]: 5.65 µM
IC50 [10]: 6.08 µM
IC50 [11]: 3.28 µM
IC50 (U2OS (osteosarcoma)): 7.43 µM

COc1cc(OC)c(C(=O)OCCCS(=O)(=O)c2cc[n+]([O-])c3cc(Cl)ccc23)cc1OC [Compound 76, 3-[(N-Oxide 7-chloroquinolin-4-yl)sulfonyl]propyl-2,4,5-trimethoxybenzoate]
IC50 [1]: 11.4 µM
IC50 [2]: 35.7 µM
IC50 [3]: 24.4 µM
IC50 [4]: 2.22 µM
IC50 [5]: 18.1 µM
IC50 [6]: 7.96 µM
IC50 [7]: 8.66 µM
IC50 [8]: 8.77 µM
IC50 [9]: 19.9 µM
IC50 [10]: 22.5 µM
IC50 [11]: 19.6 µM
IC50 (U2OS (osteosarcoma)): 9.33 µM

COc1cc(C(=O)OCCCS(=O)(=O)c2cc[n+]([O-])c3cc(Cl)ccc23)cc(OC)c1OC [Compound 77, 3-[(N-Oxide 7-chloroquinolin-4-yl)sulfonyl]propyl-3,4,5-trimethoxybenzoate]
IC50 [1]: 9.02 µM
IC50 [2]: 28.6 µM
IC50 [3]: 21.6 µM
IC50 [4]: 1.58 µM
IC50 [5]: 12 µM
IC50 [6]: 6.51 µM
IC50 [7]: 6.75 µM
IC50 [8]: 7.5 µM
IC50 [9]: 10.9 µM
IC50 [10]: 25.6 µM
IC50 [11]: 20.1 µM
IC50 (U2OS (osteosarcoma)): 7.81 µM

O=C(OCCCS(=O)(=O)c1cc[n+]([O-])c2cc(Cl)ccc12)c1ccc(C(F)(F)F)cc1 [Compound 82, 3-[(N-Oxide 7-chloroquinolin-4-yl)sulfonyl]propyl-4-(trifluoromethyl)benzoate]
IC50 [1]: 6.66 µM
IC50 [2]: 23.5 µM
IC50 [3]: 13.9 µM
IC50 [4]: 1.05 µM
IC50 [5]: 3.46 µM
IC50 [6]: 4.9 µM
IC50 [7]: 6.59 µM
IC50 [8]: 6.24 µM
IC50 [9]: 4.01 µM
IC50 [10]: 23.7 µM
IC50 [11]: 19.8 µM
IC50 (U2OS (osteosarcoma)): 5.05 µM

COc1ccc(C(=O)OCCC[S+]([O-])c2ccnc3cc(Cl)ccc23)cc1[N+](=O)[O-] (stereo not drawn) [Compound 59, 3-[(7-Chloroquinolin-4-yl)sulfinyl]propyl-4-methoxy-3-nitrobenzoate]
IC50 ([1]; Homo sapiens, A549, MTS, 72 h of incubation, read-out: Cytotoxic activity IC50, A549): 7.76 µM
IC50 at 72 h (Cytotoxic MTS assay, BJ): 21.6 µM
IC50 at 72 h [12]: 10.2 µM
IC50 ([4]; Homo sapiens, CCRF-CEM, MTS, 72 h of incubation, read-out: Cytotoxic activity IC50, CCRF-CEM): 1.2 µM
IC50 ([5]; Homo sapiens, CEM-DNR, MTS, 72 h of incubation, read-out: Cytotoxic activity IC50, CEM-DNR): 8.81 µM
IC50 ([6]; Homo sapiens, HCT-116, MTS, 72 h of incubation, read-out: Cytotoxic activity IC50, HCT116): 8.86 µM
IC50 ([7]; Homo sapiens, HCT-116, MTS, 72 h of incubation, read-out: Cytotoxic activity IC50, HCT116-p53): 6.81 µM
IC50 ([8]; Homo sapiens, K562, MTS, 72 h of incubation, read-out: Cytotoxic activity IC50, K562): 8.77 µM
IC50 ([9]; Homo sapiens, K562-Tax, MTS, 72 h of incubation, read-out: Cytotoxic activity IC50, K562-TAX): 6.12 µM
IC50 at 72 h [13]: 23.7 µM
IC50 at 72 h [14]: 10.3 µM
IC50 (U2OS (osteosarcoma); Homo sapiens, U2OS, MTS, 72 h of incubation, read-out: Cytotoxic activity IC50, U2OS): 5.15 µM

COc1ccccc1C(=O)OCCCS(=O)(=O)c1cc[n+]([O-])c2cc(Cl)ccc12 [Compound 78, 3-[(N-Oxide 7-chloroquinolin-4-yl)sulfonyl]propyl-2-methoxybenzoate]
IC50 [1]: 7.75 µM
IC50 [2]: 25 µM
IC50 [3]: 19.7 µM
IC50 [4]: 2.63 µM
IC50 [5]: 9.18 µM
IC50 [6]: 5.64 µM
IC50 [7]: 6.99 µM
IC50 [8]: 7.37 µM
IC50 [9]: 8.78 µM
IC50 [10]: 22.6 µM
IC50 [11]: 19.5 µM
IC50 (U2OS (osteosarcoma)): 7.18 µM

— publication PMC9607427, “Novel 7-Chloro-(4-thioalkylquinoline) Derivatives: Synthesis and Antiproliferative Activity through Inducing Apoptosis and DNA/RNA Damage” (Pharmaceuticals, 2022)
